This assay relates to viruses. Kind of assay: in vitro virucidal action. Conditions: as the degree of hydroxymethylation increases.

Here are results for 1 substance from US10022394B2, “Antiinfective composition” (priority 2011, dated 2018).

As to hydroxymethyl-hyaluronic acid, the virucidal action result is reported as “increased”.
